Test results reported in patent publication US6458832B1, “Carboplatin analogs for cancer treatment” (Unitech Pharmaceuticals, Inc., priority 1999, dated 2002).

System: human squamous carcinoma clone cancer cell line (SCC-1)
Experiment: In-vitro effect on SCC-1 cell growth (cell viability by Coulter Counter)
Type: cell-based
Details: for Cell Count/mL: SCC-1 cells, two days after treatment at 37° C., untreated (0 μM) 5.70 × 10^5
Method: The in-vitro effects of sample #01 1700 on human squamous carcinoma clone cancer cell line (SCC-1).
All cell culture plasticware was purchased from Fisher. Media and antibiotics were purchased from Gibco and Sigma.
Cell viability using a Coulter Counter is used to quantify toxicity. SCC-^1 cells are grown in MEM media containing 10% Fetal Bovine Serum, 100 units/ml penicillin, 100 1μ/ml streptomycin, and 2.5 μg/ml fungizone at 37° C. in a 5% CO2 incubator. A 6 well dish is inoculated to 2.0×10^5 cells/well in a total volume of media of 2 ml. Incubation occurs overnight and the cells are ready for treatment the next day.
Stock solution of sample #01 1700 is sterile filtered with a 0.22 μm low protein binding syringe filter. Dilutions are made in fresh MEM-10% FBS.
Two days after treatment at 37° C., cells are harvested and quantified using a Coulter Counter. To harvest, all media is removed and 1 ml of 1× trypsin solution is added per well. Tryspin is in the well for approximately 5 minutes at 37° C. After 5 minutes, 1 ml of fresh MEM-10% FBS is added per well. Upon vigorous mixing to ensure breakup of aggregate cells, dilutions are made in Isoton®II ready for cell counts. Each well is counted twice. Thus, duplicate wells plus duplicate counts yield 4 cell counts per parameter above.

With CC(N)C(=O)O.CC(N)C(=O)O.[Cl][Pt][Cl] (stereo not drawn) [#011700, PtCl2[CH3CH(NH)2COOH]2] the “Cell Count/mL” value (20 μM #011700) was 600000 mL⁻¹, the “Cell Count/mL” value (30 μM #011700) was 580000 mL⁻¹ and the “Cell Count/mL” value (40 μM #011700) was 520000 mL⁻¹. The “Cell Count/mL” value (50 μM #011700) was 440000 mL⁻¹, the “Cell Count/mL” value (60 μM #011700) was 380000 mL⁻¹ and the “inhibition of the growth of SCC-1 cells in-vitro” value (20-60 μM, two days after treatment) was “shows inhibition of the growth”.
